Among the data in patent US9321760B2 (Merck Patent GmbH, priority 2011, dated 2016) are IC50 values, retold here.

By IC50 is commonly meant the concentration that gives 50% inhibition. The low end stands for inhibition by little substance, the high end for a need for much substance.

SMILES strings stand for the structures.

This test deals with P70S6K (T412E mutant) (Homo sapiens (Human), UniProt P23443, T412E). The test is described as follows: P70S6K enzyme assay. The format is biochemical. The settings on record: 3 nM P70S6K T412E mutant, 24 μM ATP, 1 μM FITC-AHA-AKRRRLSSLRA-OH substrate peptide, 90 min at 25° C. How it is done:
The IC50 values reported for the compounds in the Experimental section were derived from the following protocol for the p70S6K enzyme assay.
P70S6K inhibitor compounds were diluted and plated in 96 well plates. A reaction mixture including the following components was then added to the compound plate to initiate the enzyme reaction; P70S6K (3 nM, T412E mutant, Millipore) was mixed with 24 μM ATP in an assay buffer containing 100 mM Hepes (pH 7.5), 5 mM MgCl2, 1 mM DTT, 0.015% Brij and 1 μM of the substrate peptide FITC-AHA-AKRRRLSSLRA-OH (derived from the S6 ribosomal protein sequence, FITC=fluorescein isothiocyanate, AHA=6-aminohexanoic acid). The reaction was incubated for 90 min at 25° C., before the addition of 10 mM EDTA to stop the reaction. The proportion of substrate and product (phosphorylated) peptide was analysed on a Caliper Life Sciences Lab Chip 3000, using a pressure of −1.4 psi, and upstream and downstream voltages of −3000 and −700 respectively. Product peaks were resolved before substrate peaks on the resulting chromatograms.

P70S6K (T412E mutant), sequence (P23443 whole entry T412E): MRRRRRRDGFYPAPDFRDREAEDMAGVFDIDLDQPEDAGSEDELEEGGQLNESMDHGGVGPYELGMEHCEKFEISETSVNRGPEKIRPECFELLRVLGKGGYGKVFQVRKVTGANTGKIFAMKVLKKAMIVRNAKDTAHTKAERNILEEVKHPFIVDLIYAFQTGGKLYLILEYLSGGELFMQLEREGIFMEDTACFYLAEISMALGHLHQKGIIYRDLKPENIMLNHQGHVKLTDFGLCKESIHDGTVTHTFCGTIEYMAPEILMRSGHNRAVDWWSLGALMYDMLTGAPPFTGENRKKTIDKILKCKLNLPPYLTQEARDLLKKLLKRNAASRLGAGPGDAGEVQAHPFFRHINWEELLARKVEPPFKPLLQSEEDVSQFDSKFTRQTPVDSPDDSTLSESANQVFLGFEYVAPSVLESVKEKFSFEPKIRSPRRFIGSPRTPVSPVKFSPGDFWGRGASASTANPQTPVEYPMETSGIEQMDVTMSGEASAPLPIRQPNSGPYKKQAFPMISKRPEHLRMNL

For the compound `NCC(c1ccc(C(F)(F)F)cc1)N1CCN(c2ncnc(N)c2C2=CCCCC2)CC1` (centres unmarked) [Example 24, 6-(4-(2-amino-1-(4-(trifluoromethyl)phenyl)ethyl)piperazin-1-yl)-5-(cyclohex-1-en-1-yl)pyrimidin-4-amine], inhibition was half-maximal at 0.0053 µM (IC50). `NCC(c1ccc(C(F)(F)F)cc1)N1CCN(c2ncnc(N)c2C2=CCCC2)CC1` (centres unmarked) [Example 25, 6-(4-(2-amino-1-(4-(trifluoromethyl)phenyl)ethyl)piperazin-1-yl)-5-(cyclopent-1-en-1-yl)pyrimidin-4-amine]: the IC50 is 0.0034 µM. In the case of `CN(C)CC(c1ccc(C(F)(F)F)cc1)N1CCN(c2ncnc(N)c2-c2ccc(C(=O)O)cc2)CC1` (centres unmarked) [Example 26, 4-(4-amino-6-(4-(2-(dimethylamino)-1-(4-(trifluoromethyl)phenyl)ethyl)piperazin-1-yl)pyrimidin-5-yl)benzoic acid] it was 0.045 µM.

`Nc1ncnc(N2CCN(C(CN3CCC3)c3ccc(C(F)(F)F)cc3)CC2)c1-c1ccc(F)cc1` (centres unmarked) [Example 27, 6-(4-(2-(azetidin-1-yl)-1-(4-(trifluoromethyl)phenyl)ethyl)piperazin-1-yl)-5-(4-fluorophenyl)pyrimidin-4-amine] showed an IC50 of 0.0042 µM.

With `CN(C)CC(c1ccc(C(F)(F)F)cc1)N1CCN(c2ncnc(N)c2C2CC2)CC1` (centres unmarked) [Example 28, 5-Cyclopropyl-6-(4-(2-(dimethylamino)-1-(4-(trifluoromethyl)phenyl)ethyl)piperazin-1-yl)pyrimidin-4-amine], the half-inhibitory concentration (IC50) is 0.26 µM. In the case of `Cn1ccnc1C(c1ccccc1)N1CCN(c2ncnc(N)c2Br)CC1` (centres unmarked) [Example 29, 5-Bromo-6-{4-[(1-methyl-1H-imidazol-2-yl)-phenyl-methyl]-piperazin-1-yl}-pyrimidin-4-ylamine] it was above 1 µM. In the case of `Cn1ccnc1C(c1ccccc1)N1CCN(c2ncnc(N)c2-c2ccc(F)cc2)CC1` (centres unmarked) [Example 30, 5-(4-Fluoro-phenyl)-6-{4-[(1-methyl-1H-imidazol-2-yl)-phenyl-methyl]-piperazin-1-yl}-pyrimidin-4-ylamine] it was 0.0345 µM. In the case of `COc1c(N)ncnc1N1CCN(C(CN)c2ccc(C(F)(F)F)cc2)CC1` (centres unmarked) [Example 31, 6-(4-(2-amino-1-(4-(trifluoromethyl)phenyl)ethyl)piperazin-1-yl)-5-methoxypyrimidin-4-amine] it was 0.04 µM; in that of `CCOc1c(N)ncnc1N1CCN(C(CN)c2ccc(C(F)(F)F)cc2)CC1` (centres unmarked) [Example 32, 6-(4-(2-amino-1-(4-(trifluoromethyl)phenyl)ethyl)piperazin-1-yl)-5-ethoxypyrimidin-4-amine], 0.0485 µM; in that of `NCC(c1ccc(C(F)(F)F)cc1)N1CCN(c2ncnc(N)c2OCC(F)(F)F)CC1` (centres unmarked) [Example 33, 6-(4-(2-amino-1-(4-(trifluoromethyl)phenyl)ethyl)piperazin-1-yl)-5-(2,2,2-trifluoroethoxy)pyrimidin-4-amine], 0.0485 µM.

`NCC(c1ccc(C(F)(F)F)cc1)N1CCN(c2ncnc(N)c2OCc2ccccc2)CC1` (centres unmarked) [Example 34, 6-(4-(2-amino-1-(4-(trifluoromethyl)phenyl)ethyl)piperazin-1-yl)-5-(benzyloxy)pyrimidin-4-amine] gave a 50% inhibitory concentration (IC50) of 0.057 µM. The compound `NCC(c1ccc(C(F)(F)F)cc1)N1CCN(c2ncnc(N)c2O)CC1` (centres unmarked) [Example 35, 4-amino-6-(4-(2-amino-1-(4-(trifluoromethyl)phenyl)ethyl)piperazin-1-yl) pyrimidin-5-ol] came in with an IC50 above 1 µM. In the case of `N#Cc1c(N)ncnc1N1CCN(C(CN)c2ccc(C(F)(F)F)cc2)CC1` (centres unmarked) [Example 36, 4-Amino-6-{4-[2-amino-1-(4-trifluoromethyl-phenyl)-ethyl]-piperazin-1-yl}-pyrimidine-5-carbonitrile] it was 0.014 µM; in that of `NCC(c1ccc(C(F)(F)F)cc1)N1CCN(c2ncnc(N)c2-c2cc[nH]c2)CC1` (centres unmarked) [Example 37, 6-(4-(2-amino-1-(4-(trifluoromethyl)phenyl)ethyl)piperazin-1-yl)-5-(1H-pyrrol-3-yl)pyrimidin-4-amine], 0.0058 µM. In the case of `NCC(c1ccc(C(F)(F)F)cc1)N1CCN(c2ncnc(N)c2-c2cnoc2)CC1` (centres unmarked) [Example 38, 6-(4-(2-amino-1-(4-(trifluoromethyl)phenyl)ethyl)piperazin-1-yl)-5-(isoxazol-4-yl)pyrimidin-4-amine] it was 0.1 µM; in that of `CCn1cc(-c2c(N)ncnc2N2CCN(C(CN)c3ccc(C(F)(F)F)cc3)CC2)cn1` (centres unmarked) [Example 39, 6-(4-(2-amino-1-(4-(trifluoromethyl)phenyl)ethyl)piperazin-1-yl)-5-(1-ethyl-1H-pyrazol-4-yl)pyrimidin-4-amine], 0.012 µM. In the case of `Cn1cc(-c2c(N)ncnc2N2CCN(C(CN)c3ccc(C(F)(F)F)cc3)CC2)cn1` (centres unmarked) [Example 40, 6-{4-[2-Amino-1-(4-trifluoromethyl-phenyl)-ethyl]-piperazin-1-yl}-5-(1-methyl-1H-pyrazol-4-yl)-pyrimidin-4-ylamine] it was 0.011 µM; in that of `Cn1cc(-c2c(N)ncnc2N2CCN([C@H](CN)c3ccc(C(F)(F)F)cc3)CC2)cn1` [Example 41, 6-{4-[(S)-2-Amino-1-(4-trifluoromethyl-phenyl)-ethyl]-piperazin-1-yl}-5-(1-methyl-1H-pyrazol-4-yl)-pyrimidin-4-ylamine], 0.014 µM; in that of `Cn1cc(-c2c(N)ncnc2N2CCN([C@@H](CN)c3ccc(C(F)(F)F)cc3)CC2)cn1` [Example 42, 6-{4-[(R)-2-Amino-1-(4-trifluoromethyl-phenyl)-ethyl]-piperazin-1-yl}-5-(1-methyl-1H-pyrazol-4-yl)-pyrimidin-4-ylamine], 0.006 µM. As for `Cn1ccc(-c2c(N)ncnc2N2CCN(C(CN)c3ccc(C(F)(F)F)cc3)CC2)n1` (centres unmarked) [Example 43, 6-{4-[2-Amino-1-(4-trifluoromethyl-phenyl)-ethyl]-piperazin-1-yl}-5-(1-methyl-1H-pyrazol-3-yl)-pyrimidin-4-ylamine], the IC50 is 0.098 µM. In the case of `Cn1ccc(-c2c(N)ncnc2N2CCN(C(CNC(C)(C)C(C)(C)O)c3ccc(C(F)(F)F)cc3)CC2)n1` (centres unmarked) [Example 44, 3-[2-{4-[6-Amino-5-(1-methyl-1H-pyrazol-3-yl)-pyrimidin-4-yl]-piperazin-1-yl}-2-(4-trifluoromethyl-phenyl)-ethylamino]-2,3-dimethyl-butan-2-ol] it was 0.15 µM; in that of `NCC(c1ccc(C(F)(F)F)cc1)N1CCN(c2ncnc(N)c2CN2CC(F)C2)CC1` (centres unmarked) [Example 45, 6-(4-(2-amino-1-(4-(trifluoromethyl)phenyl)ethyl)piperazin-1-yl)-5-((3-fluoroazetidin-1-yl)methyl)pyrimidin-4-amine], 0.21 µM; in that of `Nc1ncnc(N2CCC(Cc3ccc(Cl)cc3)CC2)c1Br` [Example 46, 5-Bromo-6{4-(4-chlorobenzyl)-piperidin-1-yl}pyrimidin-4-amine], 0.63 µM. `Nc1ncnc(N2CCC(Cc3ccc(C(F)(F)F)cc3)CC2)c1Br` [Example 47, 5-Bromo-6{4-(4-trifluoromethylbenzyl)-piperidin-1-yl}pyrimidin-4-amine]: the IC50 worked out at 0.96 µM. In the case of `Nc1ncnc(N2CCC(Cc3ccc(C(F)(F)F)cc3)CC2)c1-c1ccc(F)cc1` [Example 48, 5-(4-Fluorophenyl)-6{4-(4-trifluoromethylbenzyl)-piperidin-1-yl}pyrimidin-4-amine] it was 0.066 µM; in that of `Nc1ncnc(N2CCC(Cc3ccc(Cl)cc3)CC2)c1-c1ccc(F)cc1` [Example 49, 5-(4-Fluorophenyl)-6{4-(4-chlorobenzyl)-piperidin-1-yl}pyrimidin-4-amine], 0.016 µM; in that of `Nc1ncnc(N2CCC(Cc3ccc(-c4ccc(F)cc4)cc3)CC2)c1-c1ccc(F)cc1` [Example 50, 5-(4-Fluorophenyl)-6{4-(4-(4-fluorophenyl)benzyl)-piperidin-1-yl}pyrimidin-4-amine], 0.45 µM.

`NCC(c1ccc(C(F)(F)F)cc1)C1CCN(c2ncnc(N)c2Br)CC1` (centres unmarked) [Example 51, 6-{4-[2-Amino-1-(4-trifluoromethyl-phenyl)-ethyl]-piperidin-1-yl}-5-bromo-pyrimidin-4-ylamine] yielded an IC50 of 0.041 µM. In the case of `NCC(c1ccc(C(F)(F)F)cc1)C1CCN(c2ncnc(N)c2-c2ccc(F)cc2)CC1` (centres unmarked) [Example 52, 6-{4-[2-Amino-1-(4-trifluoromethyl-phenyl)-ethyl]-piperidin-1-yl}-5-(4-fluoro-phenyl)-pyrimidin-4-ylamine] it was 0.0033 µM.

For the compound `NC[C@H](c1ccc(C(F)(F)F)cc1)C1CCN(c2ncnc(N)c2-c2ccc(F)cc2)CC1` [Example 53, 6-{4-[(S)-2-Amino-1-(4-trifluoromethyl-phenyl)-ethyl]-piperidin-1-yl}-5-(4-fluoro-phenyl)-pyrimidin-4-ylamine], it took 0.0032 µM to reach half-maximal inhibition (IC50). In the case of `NC[C@@H](c1ccc(C(F)(F)F)cc1)C1CCN(c2ncnc(N)c2-c2ccc(F)cc2)CC1` [Example 54, 6-{4-[(R)-2-Amino-1-(4-trifluoromethyl-phenyl)-ethyl]-piperidin-1-yl}-5-(4-fluoro-phenyl)-pyrimidin-4-ylamine] it was 0.0045 µM; in that of `NCC(c1ccc(C(F)(F)F)cc1)C1CCN(c2ncnc(N)c2-c2cn[nH]c2)CC1` (centres unmarked) [Example 55, 6-(4-(2-amino-1-(4-(trifluoromethyl)phenyl)ethyl)piperidin-1-yl)-5-(1H-pyrazol-4-yl)pyrimidin-4-amine], 0.0052 µM.
